The text below walks through data of patent publication US20240398805A1, “QUINAZOLINE DERIVED COMPOUNDS AS EGFR INHIBITORS AND THEIR USES THEREOF” (ACCUTAR BIOTECHNOLOGY INC., priority 2021, published 2024).

Assay type in all cases: cell-based
One experiment has as its system HCC827 cells. Put plainly: Cell growth inhibition (CellTiter-Glo, 3 days) in HCC827. The note with it: Homo sapiens, 72 h, 3 days after administration. The gist of the method: (§1)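 HCC827 cells were plated at 5000 cells/well in RPMI with 10% FBS, and A431 cells at the same density in DMEM with 10% FBS. After overnight attachment, compounds were added at various concentrations. Luminescence was recorded after plates were equilibrated to room temperature and incubated 10 min with reagent.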
On the technique in general: Cellular ATP, detected with luciferase, serves as a proxy for viable cell number.

For experiment [1], the system named is HCC827-SVD cells (human EGFR exon 20 insertion mutant D770_N771 insSVD). Put plainly: Cell growth inhibition (CellTiter-Glo, 3 days) in HCC827-SVD. The settings on record: 72 h, 3 days after administration. Summed up: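 HCC827 cells carrying lentiviral codon-optimized EGFR D770_N771 insSVD, with endogenous EGFR knocked out by CRISPR (single clone), seeded at 5000 cells/well in RPMI with 10% FBS. Viability read by CellTiter-Glo luminescence.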

Experiment [2] relates to HCC827-ASV cells (human EGFR exon 20 insertion mutant A769_D770insASV). Put plainly: Cell growth inhibition (CellTiter-Glo, 3 days) in HCC827-ASV. The settings on record: 72 h, 3 days after administration. Summed up: (§2)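 HCC827 cells lentivirally transduced with codon-optimized ASV or YVMA insertion mutants were seeded at 5000 cells/well in RPMI with 10% FBS and incubated overnight. Compound was added at various concentrations from a 10× stock in medium, with 3 days' incubation. Viability read by CellTiter-Glo luminescence.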

In another experiment the test system is A431 cells. Put plainly: Cell growth inhibition (CellTiter-Glo, 3 days) in A431. The note with it: Homo sapiens, A-431, 72 h, 3 days after administration. Summed up: as §1
Experiment [3] concerns HCC827-YVMA cells (human ERBB2 exon20 insertion mutant A775_G776ins YVMA). Put plainly: Cell growth inhibition (CellTiter-Glo, 3 days) in HCC827-YVMA. The settings on record: 72 h, 3 days after administration. The gist of the method: as §2

`C=CC(=O)N1CCC(Nc2cc3c(Nc4ccc(Oc5nc(-c6cnc(OCC)nc6)cs5)cc4F)ncnc3cc2OC)CC1` [Example 28, 1-(4-((4-((4-((4-(2-ethoxypyrimidin-5-yl)thiazol-2-yl)oxy)-2-fluorophenyl)amino)-7-methoxyquinazolin-6-yl)amino)piperidin-1-yl)prop-2-en-1-one]: the concentration for 50% growth inhibition (GI50) (in general, the concentration that inhibits growth by half) in the experiment on HCC827 cells is 100 to 300 nM; in experiment [1], 30 to 60 nM; in experiment [2], less than 30 nM; in the experiment with A431 cells it was 100 to 300 nM; in experiment [3] it was 30 to 60 nM.

In the case of `C=CC(=O)N1CCC(Nc2cc3c(Nc4ccc(Oc5ccn(-c6ccc(C)nn6)n5)cc4F)ncnc3cc2OC)CC1` [Example 29, 1-(4-((4-((2-fluoro-4-((1-(6-methylpyridazin-3-yl)-1H-pyrazol-3-yl)oxy)phenyl)amino)-7-methoxyquinazolin-6-yl)amino)piperidin-1-yl)prop-2-en-1-one], the GI50 is less than 30 nM with HCC827 cells; less than 30 nM in experiment [1]; less than 30 nM in experiment [2]; no less than 1000 nM in the experiment with A431 cells; less than 30 nM in experiment [3].

Consider `C=CC(=O)N1CCC(Nc2cc3c(Nc4ccc(Oc5ccn(-c6cc(OC)ncn6)n5)cc4F)ncnc3cc2OC)CC1` [Example 30, 1-(4-((4-((2-fluoro-4-((1-(6-methoxypyrimidin-4-yl)-1H-pyrazol-3-yl)oxy)phenyl)amino)-7-methoxyquinazolin-6-yl)amino)piperidin-1-yl)prop-2-en-1-one], for which the GI50 is 100 to 300 nM in the experiment with HCC827 cells; 30 to 60 nM in experiment [1]; less than 30 nM in experiment [2]; 300 to 600 nM in the experiment with A431 cells; less than 30 nM in experiment [3].

With `C=CC(=O)N1CCC(Nc2cc3c(Nc4ccc(Oc5nc(-c6cnc(C)nc6)cs5)cc4F)ncnc3cc2OC)CC1` [Example 32, 1-(4-((4-((2-fluoro-4-((4-(2-methylpyrimidin-5-yl)thiazol-2-yl)oxy)phenyl)amino)-7-methoxyquinazolin-6-yl)amino)piperidin-1-yl)prop-2-en-1-one], the 50% growth inhibitory concentration (GI50) was 60 to 100 nM with HCC827 cells; less than 30 nM in experiment [1]; less than 30 nM in experiment [2]; 100 to 300 nM in the experiment on A431 cells; less than 30 nM in experiment [3].

Consider `C=CC(=O)N1CCC(Nc2cc3c(Nc4ccc(Oc5ccn(-c6cnc(C)cn6)n5)cc4F)ncnc3cc2OC)CC1` [Example 33, 1-(4-((4-((2-fluoro-4-((1-(5-methylpyrazin-2-yl)-1H-pyrazol-3-yl)oxy)phenyl)amino)-7-methoxyquinazolin-6-yl)amino)piperidin-1-yl)prop-2-en-1-one], for which the GI50 in the experiment on HCC827 cells was 300 to 600 nM; in experiment [1], 100 to 300 nM; in experiment [2] it was 60 to 100 nM; in the experiment with A431 cells, 100 to 300 nM; in experiment [3] it was 100 to 300 nM.

For `C=CC(=O)N1CCC(Nc2cc3c(Nc4ccc(Oc5ccn(-c6cnc(C)c(C)c6)n5)cc4F)ncnc3cc2OC)CC1` [Example 36, 1-(4-((4-((4-((1-(5,6-dimethylpyridin-3-yl)-1H-pyrazol-3-yl)oxy)-2-fluorophenyl)amino)-7-methoxyquinazolin-6-yl)amino)piperidin-1-yl)prop-2-en-1-one], the GI50 in the experiment on HCC827 cells lay in the range of 60 to 100 nM; in experiment [1] it was 30 to 60 nM; in experiment [2], 60 to 100 nM; in the experiment with A431 cells it was 30 to 60 nM; in experiment [3], 60 to 100 nM.

Turning to `C=CC(=O)N1CCC(Nc2cc3c(Nc4ccc(Oc5ccn(-c6cnc(C)cc6C)n5)cc4F)ncnc3cc2OC)CC1` [Example 37, 1-(4-((4-((4-((1-(4,6-dimethylpyridin-3-yl)-1H-pyrazol-3-yl)oxy)-2-fluorophenyl)amino)-7-methoxyquinazolin-6-yl)amino)piperidin-1-yl)prop-2-en-1-one], the GI50 with HCC827 cells is 30 to 60 nM; in experiment [1], less than 30 nM; in experiment [2], less than 30 nM; in the experiment with A431 cells it was 300 to 600 nM; in experiment [3], less than 30 nM.

`C=CC(=O)N1CCC(Nc2cc3c(Nc4ccc(Oc5ccn(-c6cnc(C)c(OC)c6)n5)cc4F)ncnc3cc2OC)CC1` [Example 38, 1-(4-((4-((2-fluoro-4-((1-(5-methoxy-6-methylpyridin-3-yl)-1H-pyrazol-3-yl)oxy)phenyl)amino)-7-methoxyquinazolin-6-yl)amino)piperidin-1-yl)prop-2-en-1-one]: the GI50 in the experiment on HCC827 cells fell in the range of 100 to 300 nM; in experiment [1], 30 to 60 nM; in experiment [2] it was 30 to 60 nM; in the experiment with A431 cells, 30 to 60 nM; in experiment [3] it was 30 to 60 nM.

`C=CC(=O)N1CCC(Nc2cc3c(Nc4ccc(Oc5ccnc(-n6cc(C)cn6)n5)cc4F)ncnc3cc2OC)CC1` [Example 39, 1-(4-((4-((2-fluoro-4-((2-(4-methyl-1H-pyrazol-1-yl)pyrimidin-4-yl)oxy)phenyl)amino)-7-methoxyquinazolin-6-yl)amino)piperidin-1-yl)prop-2-en-1-one]: the GI50 with HCC827 cells is 60 to 100 nM; in experiment [1], less than 30 nM; in experiment [2], less than 30 nM; with A431 cells it was 300 to 600 nM; in experiment [3] it was less than 30 nM.

With `C=CC(=O)N1CCC(Nc2cc3c(Nc4ccc(Oc5ccnc(-c6cncs6)c5)cc4F)ncnc3cc2OC)CC1` [Example 42, 1-(4-((4-((2-fluoro-4-((2-(thiazol-5-yl)pyridin-4-yl)oxy)phenyl)amino)-7-methoxyquinazolin-6-yl)amino)piperidin-1-yl)prop-2-en-1-one], the GI50 is no less than 1000 nM with HCC827 cells; 600 to 1000 nM in experiment [1]; 300 to 600 nM in experiment [2]; no less than 1000 nM with A431 cells; 600 to 1000 nM in experiment [3].

Take `C=CC(=O)N1CCC(Nc2cc3c(Nc4ccc(Oc5ccnc(-c6nccs6)c5)cc4F)ncnc3cc2OC)CC1` [Example 43, 1-(4-((4-((2-fluoro-4-((2-(thiazol-2-yl)pyridin-4-yl)oxy)phenyl)amino)-7-methoxyquinazolin-6-yl)amino)piperidin-1-yl)prop-2-en-1-one]: the GI50 was 60 to 100 nM in the experiment on HCC827 cells; less than 30 nM in experiment [1]; less than 30 nM in experiment [2]; 300 to 600 nM in the experiment with A431 cells; less than 30 nM in experiment [3].

Consider `C=CC(=O)N1CCC(Nc2cc3c(Nc4ccc(Oc5ccnc(-c6ccn[nH]6)c5)cc4F)ncnc3cc2OC)CC1` [Example 45, 1-(4-((4-((4-((2-(1H-pyrazol-5-yl)pyridin-4-yl)oxy)-2-fluorophenyl)amino)-7-methoxyquinazolin-6-yl)amino)piperidin-1-yl)prop-2-en-1-one], for which the GI50 is 100 to 300 nM with HCC827 cells; 60 to 100 nM in experiment [1]; less than 30 nM in experiment [2]; 300 to 600 nM with A431 cells; 60 to 100 nM in experiment [3].

`C=CC(=O)N1CCC(Nc2cc3c(Nc4ccc(Oc5ccn(-c6ccnc(OC)n6)n5)cc4F)ncnc3cc2OC)CC1` [Example 47, 1-(4-((4-((2-fluoro-4-((1-(2-methoxypyrimidin-4-yl)-1H-pyrazol-3-yl)oxy)phenyl)amino)-7-methoxyquinazolin-6-yl)amino)piperidin-1-yl)prop-2-en-1-one]: the GI50 was 30 to 60 nM with HCC827 cells; 30 to 60 nM in experiment [1]; less than 30 nM in experiment [2]; 300 to 600 nM in the experiment on A431 cells; less than 30 nM in experiment [3].

For the molecule `C=CC(=O)N1CCC(Nc2cc3c(Nc4ccc(Oc5ccn(-c6ccc(N(C)C)nn6)n5)cc4F)ncnc3cc2OC)CC1` [Example 48, 1-(4-((4-((4-((1-(6-(dimethylamino)pyridazin-3-yl)-1H-pyrazol-3-yl)oxy)-2-fluorophenyl)amino)-7-methoxyquinazolin-6-yl)amino)piperidin-1-yl)prop-2-en-1-one], the GI50 in the experiment on HCC827 cells was 60 to 100 nM; in experiment [1] it was 30 to 60 nM; in experiment [2] it was 30 to 60 nM; in the experiment with A431 cells, 60 to 100 nM; in experiment [3], 30 to 60 nM.

For the molecule `C=CC(=O)N1CCC(Nc2cc3c(Nc4ccc(Oc5ccn(-c6ccc(OC)nn6)n5)cc4F)ncnc3cc2OC)CC1` [Example 50, 1-(4-((4-((2-fluoro-4-((1-(6-methoxypyridazin-3-yl)-1H-pyrazol-3-yl)oxy)phenyl)amino)-7-methoxyquinazolin-6-yl)amino)piperidin-1-yl)prop-2-en-1-one], the GI50 in the experiment with HCC827 cells lay within 60 to 100 nM; in experiment [1], 30 to 60 nM; in experiment [2] it was 30 to 60 nM; in the experiment with A431 cells, 100 to 300 nM; in experiment [3], 30 to 60 nM.

With `C=CC(=O)N1CCC(Nc2cc3c(Nc4ccc(Oc5nc(-c6cnc(OC)nc6)cs5)cc4F)ncnc3cc2OC)CC1` [Example 53, 1-(4-((4-((2-fluoro-4-((4-(2-methoxypyrimidin-5-yl)thiazol-2-yl)oxy)phenyl)amino)-7-methoxyquinazolin-6-yl)amino)piperidin-1-yl)prop-2-en-1-one], the GI50 with HCC827 cells was 30 to 60 nM; in experiment [1] it was less than 30 nM; in experiment [2] it was less than 30 nM; in the experiment with A431 cells, 100 to 300 nM; in experiment [3] it was less than 30 nM.

As to `C=CC(=O)N1CCC(Nc2cc3c(Nc4ccc(Oc5ccn(-c6cnc(OC)nc6)n5)c(F)c4)ncnc3cc2OC)CC1` [Example 54, 1-(4-((4-((3-fluoro-4-((1-(2-methoxypyrimidin-5-yl)-1H-pyrazol-3-yl)oxy)phenyl)amino)-7-methoxyquinazolin-6-yl)amino)piperidin-1-yl)prop-2-en-1-one], the GI50 is less than 30 nM in the experiment on HCC827 cells; less than 30 nM in experiment [1]; less than 30 nM in experiment [2]; 100 to 300 nM in the experiment with A431 cells; less than 30 nM in experiment [3].
